Reference: the supplement of paper PMC10307832

How the values were obtained:
Assay in all cases: relative viability (nuclei count vs DMSO), 5 days (fraction); higher = more cells survive
[1] = compound: CC[C@H](C)N1C=C(C2=C(C=C(C=C21)C3=CN=C(C=C3)N4CCNCC4)C(=O)NCC5=C(C=C(NC5=O)C)C)C [GSK126] + Cc1nc(Nc2ncc(C(=O)Nc3c(C)cccc3Cl)s2)cc(N2CCN(CCO)CC2)n1 [Dasatinib] (partner 0.075 µM)
Procedure, shortened: (§1)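 Each reported value is a median over duplicate plates. It expresses relative viability: treated-well nuclei count divided by vehicle-well nuclei count. Lung cancer cell lines in 1536-well plates were dosed by pin tool a day after seeding, alone with one drug or with a fixed anchor-drug dose plus five library-drug doses (not always all listed) in √10 steps, and nuclei were counted after 5 days.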

[2] = compound: C1CC(C1)(C(=O)O)C(=O)O.[NH2-].[NH2-].[Pt+2] [Carboplatin] + Nc1ncn([C@H]2C[C@H](O)[C@@H](CO)O2)c(=O)n1 [Decitabine] (partner 2 µM)
Procedure, shortened: as §1

[3] = compound: NS(=O)(=O)OC[C@@H]1C[C@@H](n2ccc3c(N[C@H]4CCc5ccccc54)ncnc32)C[C@@H]1O [MLN4924] + CC(=O)Nc1cccc(-n2c(=O)n(C3CC3)c(=O)c3c(Nc4ccc(I)cc4F)n(C)c(=O)c(C)c32)c1 [Trametinib] (partner 0.02 µM)
Procedure, shortened: as §1

[4] = compound: NS(=O)(=O)OC[C@@H]1C[C@@H](n2ccc3c(N[C@H]4CCc5ccccc54)ncnc32)C[C@@H]1O [MLN4924] + CC(C)C[C@H](NC(=O)[C@H](Cc1ccccc1)NC(=O)c1cnccn1)B(O)O [Bortezomib] (partner 0.002 µM)
Procedure, shortened: as §1

Cell Line	relative viability ([1]; first compound 0.08 µM)	relative viability ([1]; first compound 0.253 µM)	relative viability ([1]; first compound 0.8 µM)	relative viability ([1]; first compound 2.53 µM)	relative viability ([1]; first compound 8 µM)	relative viability ([2]; first compound 0.08 µM)	relative viability ([2]; first compound 0.253 µM)	relative viability ([2]; first compound 0.8 µM)	relative viability ([2]; first compound 2.53 µM)	relative viability ([2]; first compound 8 µM)	relative viability ([3]; first compound 0.04 µM)	relative viability ([3]; first compound 0.1265 µM)	relative viability ([3]; first compound 0.4 µM)	relative viability ([3]; first compound 1.265 µM)	relative viability ([3]; first compound 4 µM)	relative viability ([4]; first compound 0.04 µM)	relative viability ([4]; first compound 0.1265 µM)	relative viability ([4]; first compound 0.4 µM)	relative viability ([4]; first compound 1.265 µM)	relative viability ([4]; first compound 4 µM)
LU99A	0.648	0.467	0.718	0.526	0.568	0.862	0.869	0.864	0.731	0.724	0.493	0.342	0.291	0.172	0.146	0.873	0.316	0.407	0.159	0.138
NCI-H1299	–	–	–	–	–	–	–	–	–	–	–	–	–	–	–	1.01	0.803	0.402	0.269	0.225
NCI-H1355	0.842	0.733	0.705	0.842	0.727	0.337	0.379	0.329	0.333	0.28	0.474	0.477	0.444	0.243	0.232	1.1	1.23	1.12	0.54	0.178
HCC-15	0.728	0.671	0.578	0.609	0.653	0.657	0.627	0.588	0.587	0.452	0.362	0.279	0.191	0.105	0.106	0.685	0.53	0.234	0.102	0.0928
LXF-289	0.31	0.223	0.19	0.257	0.358	0.395	0.407	0.382	0.358	0.31	0.568	0.419	0.464	0.216	0.131	0.928	0.707	0.516	0.269	0.162
201T	0.558	0.639	0.61	0.607	0.519	0.869	0.822	0.865	0.791	0.76	0.786	0.676	0.523	0.3	0.322	1.16	1.04	1.08	0.4	0.392
HOP-62	0.829	0.583	0.636	0.566	0.595	0.234	0.223	0.243	0.195	0.214	0.432	0.567	0.369	0.103	0.0823	0.392	0.402	0.117	0.0531	0.0923
NCI-H1703	–	–	–	–	–	–	–	–	–	–	–	–	–	–	–	0.117	0.0992	0.138	0.111	0.123
NCI-H1975	0.389	0.366	0.375	0.355	0.291	0.416	0.399	0.402	0.43	0.367	0.344	0.544	0.44	0.38	0.312	0.526	0.452	0.26	0.169	0.149
